For this assay, the target named is T1, GPIIb-IIIa (Homo sapiens, UniProt P05106+P08514).
T1 construct: purchased Innovative Research, Novi, Mich
Nature of the assay: Solid phase binding assay: competition of fibrinogen binding to immobilized GPIIb-IIIa. The method, then: Peptide binding to GPIIb-IIIa was measured using a solid phase binding assay in which competition of fibrinogen binding by testing compounds is measured. The assay was performed as follows. Purified GPIIb-IIIa (Innovative Research, Novi, Mich.) was coated onto 96-well Immulon-B plates at […]×2 μg/mL, diluted in Buffer A (20 mM Tris pH 7.5, 0.15 M NaCl, and 1 mM each of MgCl2, CaCl2, and MnCl2). After overnight incubation at 4° C., the plate was blocked for 1 hour at 30° C., with 3.5% BSA in Buffer B (50 mM Tris pH 7.5, 0.1 M NaCl, and 1 mM each of MgCl2, CaCl2, and MnCl2). After washing 3 times with Buffer B, diluted peptide or protein solutions were combined with 3.5 nM biotinylated fibrinogen in 0.1% BSA/Buffer B and added to the wells, incubating at 30° C. for 2 hr. After washing (3 times, Buffer B), 1:4000 streptavidin-horseradish peroxidase (HRP) was added (Pierce Chemical Co., Rockford, Ill.) for 1 hour at 30° C. After a final washing step (3 times, Buffer B), the plate was developed with Ultra TMB (3,3′,5,5′-tetramentylbenzidine) (Pierce Chemical Co., Rockford, Ill.) for 5 minutes, stopping with an equal volume of 2 M sulfuric acid. Plate absorbances were read at 450 nm, and IC50 values determined using a 4-parameter logistic fit.

Positions of bridges follow the written chain, without caps; N, C: chain ends. Non-standard residues stand in square brackets, D forms with d. Residues, ends and D or L forms follow the SMILES beside them. Groups on a side chain read outwards from the residue. *: point of attachment. FITC = O=C1OC2(c3ccc(O)cc3Oc3cc(O)ccc32)c2ccc(NC(=S)*)cc21; Propanoyl(3-maleimido) = O=C1C=CC(=O)N1CCC(=O)*; hArg = N=C(N)NCCCC[C@H](N)C(=O)O; Ahx = NCCCCCC(=O)O; Mpa = O=C(O)CCS

T1 sequence (P08514 32-887 limits assumed): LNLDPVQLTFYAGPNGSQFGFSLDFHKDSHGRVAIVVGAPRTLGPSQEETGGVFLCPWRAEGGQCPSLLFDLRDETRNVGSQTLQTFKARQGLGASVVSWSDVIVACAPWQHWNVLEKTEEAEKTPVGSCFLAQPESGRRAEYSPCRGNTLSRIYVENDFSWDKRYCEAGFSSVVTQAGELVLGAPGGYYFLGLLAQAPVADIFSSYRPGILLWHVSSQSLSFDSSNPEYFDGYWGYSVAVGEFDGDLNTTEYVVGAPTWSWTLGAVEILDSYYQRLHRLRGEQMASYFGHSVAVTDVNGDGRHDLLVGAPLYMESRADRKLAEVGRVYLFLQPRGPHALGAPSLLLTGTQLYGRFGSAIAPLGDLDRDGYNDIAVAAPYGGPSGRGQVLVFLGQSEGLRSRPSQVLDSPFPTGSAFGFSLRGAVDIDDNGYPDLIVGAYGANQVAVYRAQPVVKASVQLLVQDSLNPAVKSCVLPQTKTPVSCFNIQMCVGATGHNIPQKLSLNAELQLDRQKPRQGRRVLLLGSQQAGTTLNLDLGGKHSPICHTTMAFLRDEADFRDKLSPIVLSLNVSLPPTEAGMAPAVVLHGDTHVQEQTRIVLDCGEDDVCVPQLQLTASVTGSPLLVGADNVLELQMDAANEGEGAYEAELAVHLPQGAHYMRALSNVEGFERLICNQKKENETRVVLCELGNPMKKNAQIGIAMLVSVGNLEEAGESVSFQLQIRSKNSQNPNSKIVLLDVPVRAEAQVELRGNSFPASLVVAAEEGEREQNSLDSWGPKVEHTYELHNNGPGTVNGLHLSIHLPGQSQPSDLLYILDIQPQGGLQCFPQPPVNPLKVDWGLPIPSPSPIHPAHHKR
T1 sequence (P05106 27-788): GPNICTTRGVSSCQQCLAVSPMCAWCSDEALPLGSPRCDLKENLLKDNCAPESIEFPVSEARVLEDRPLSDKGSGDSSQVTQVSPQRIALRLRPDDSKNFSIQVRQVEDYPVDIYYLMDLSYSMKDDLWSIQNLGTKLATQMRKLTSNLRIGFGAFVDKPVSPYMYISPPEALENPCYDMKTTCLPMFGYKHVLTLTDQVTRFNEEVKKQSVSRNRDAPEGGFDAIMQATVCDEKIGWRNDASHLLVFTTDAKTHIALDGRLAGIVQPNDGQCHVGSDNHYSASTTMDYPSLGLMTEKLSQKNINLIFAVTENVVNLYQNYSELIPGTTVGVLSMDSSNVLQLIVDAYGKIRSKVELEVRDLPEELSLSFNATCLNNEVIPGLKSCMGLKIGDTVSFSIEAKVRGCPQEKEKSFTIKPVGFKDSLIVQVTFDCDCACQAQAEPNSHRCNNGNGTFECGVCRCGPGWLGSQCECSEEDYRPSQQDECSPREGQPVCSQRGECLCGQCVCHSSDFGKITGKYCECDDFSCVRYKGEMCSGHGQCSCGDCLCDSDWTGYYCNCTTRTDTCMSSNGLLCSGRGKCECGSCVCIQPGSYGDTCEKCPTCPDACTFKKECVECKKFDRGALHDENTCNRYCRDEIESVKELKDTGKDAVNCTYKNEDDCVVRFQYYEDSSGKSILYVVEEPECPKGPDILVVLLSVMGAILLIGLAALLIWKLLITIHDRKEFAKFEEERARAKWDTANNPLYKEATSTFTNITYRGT

For `N=C(N)NCCCC[C@@H]1NC(=O)CCSSC[C@@H](C(=O)N[C@@H](CCCCNC(=O)CCCCCNC(=O)CCN2C(=O)C=CC2=O)C(N)=O)NC(=O)[C@@H]2CCCN2C(=O)[C@H](Cc2c[nH]c3ccccc23)NC(=O)[C@H](CC(=O)O)NC(=O)CNC1=O` [BHRF-1] ([Mpa][hArg]GDWPCK([Ahx-Propanoyl(3-maleimido)])-NH2; disulfide 1-7), the “Blocking of fibrinogen binding to immobilized GPIIb-IIIa, in words” value is “potently blocked”.

As for `N=C(N)NCCCC[C@@H]1NC(=O)CCSSC[C@@H](C(N)=O)NC(=O)[C@@H]2CCCN2C(=O)[C@H](Cc2c[nH]c3ccccc23)NC(=O)[C@H](CC(=O)O)NC(=O)CNC1=O` [Integrelin, reference compound] ([Mpa][hArg]GDWPC-NH2; disulfide 1-7), the IC50 (3.5 nM biotinylated fibrinogen, mean +/- spread, N in separate column or in text, read-out: IC50, inhibition of fibrinogen binding to immobilized GPIIb/IIIa) is 1.3 nM.

`N=C(N)NCCCC[C@@H]1NC(=O)CCSSC[C@@H](C(=O)N[C@@H](CCCCNC(=O)CCCCCNC(=O)CCN2C(=O)C=CC2=O)C(=O)N[C@@H](CCCCNC(=S)Nc2ccc3c(c2)C(=O)OC32c3ccc(O)cc3Oc3cc(O)ccc32)C(N)=O)NC(=O)[C@@H]2CCCN2C(=O)[C@H](Cc2c[nH]c3ccccc23)NC(=O)[C@H](CC(=O)O)NC(=O)CNC1=O` [BHRF-3] ([Mpa][hArg]GDWPCK([Ahx-Propanoyl(3-maleimido)])K(FITC)-NH2; disulfide 1-7): the “Blocking of fibrinogen binding to immobilized GPIIb-IIIa, in words” value was “potently blocked”.
